pIC50: −log10 of the molar value.
Assays:
[1] = Rat PK: brain penetration after PO dosing; format: in vivo; settings: 10 mg/kg, Rat PK: Dosing PO @ 10 mpk; for Kp uu: read-out: Kp,uu (unbound brain-to-plasma partitioning)
human LPA1 = human LPA1 (Homo sapiens, UniProt Q92633); test: In vitro functional assay of lysophosphatidic acid receptor 1 activity (calcium flux, Fluo-4 NW, LPA 18:1 at EC80); format: cell-based; settings: B103 cells stably expressing human LPA1
Experimental: Primary compound plates were prepared in 100% DMSO (Sigma-Aldrich), secondary compound plates were prepared at 10× concentration in DMEM (Invitrogen), and tertiary compound plates were prepared at 3× concentration in assay buffer containing HBSS (no Ca^+2/Mg^+2, Invitrogen) and 0.1% BSA (Sigma-Aldrich). Fluo-4 NW calcium assay dye (Invitrogen) was prepared as per manufacturer's recommendations in assay buffer. B103 cells stably expressing human LPA1 (J. Chun lab, UCSD) were grown to confluency in DMEM media (Invitrogen) containing 10% FBS (ATCC), 10% Penicillin-Streptomycin (Sigma-Aldrich) and 50 μg Geneticin (Sigma-Aldrich), and detached with Accutase (Sigma-Aldrich) prior to assay. The freshly detached cells were resuspended in growth media and plated in black, clear-bottom 96-well plates (Costar) containing compound (i.e., secondary compound plate) at a density of 5×10^4 cells/well. Once plated, cells were left at room temperature for 30 minutes and then transferred to a 37° C., 5% CO2 incubator for 24 hours. […] Finally, lysophosphatidic acid (18:1) at the EC80 concentration was added and calcium flux measured using FlexStation 3 (Molecular Devices). Sigmoidal dose-response curves were generated by measuring […] over 45 sec and calculating the area under the curve. […]

Sequence of human LPA1 (Q92633 whole entry): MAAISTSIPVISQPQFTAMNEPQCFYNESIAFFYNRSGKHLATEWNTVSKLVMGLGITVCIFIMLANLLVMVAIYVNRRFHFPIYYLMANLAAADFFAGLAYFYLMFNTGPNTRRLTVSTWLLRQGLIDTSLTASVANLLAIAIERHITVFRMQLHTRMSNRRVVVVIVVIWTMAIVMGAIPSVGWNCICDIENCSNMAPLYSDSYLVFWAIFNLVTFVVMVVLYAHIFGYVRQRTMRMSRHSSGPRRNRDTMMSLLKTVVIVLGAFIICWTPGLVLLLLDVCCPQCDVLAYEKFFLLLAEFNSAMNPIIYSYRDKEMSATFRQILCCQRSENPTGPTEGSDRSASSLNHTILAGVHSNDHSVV

| SMILES | concentration at 2 h [1] [nM] | Kp uu [1] | pIC50 (human LPA1) |
| --- | --- | --- | --- |
| COc1ccc(NC(=O)N(c2ncccc2C(C)C)[C@H]2CC[C@H](C(=O)O)CC2)c(OC(F)F)n1 [Example 2, trans-4-(3-(2-(difluoromethoxy)-6-methoxypyridin-3-yl)-1-(3-isopropylpyridin-2-yl)ureido)cyclohexane-1-carboxylic acid] | 2100 | 0.15 | 7.00 to 8.00 |
| COc1ccc(NC(=O)N(c2cnccc2C(C)C)[C@H]2CC[C@H](C(=O)O)CC2)c(OC(F)F)n1 [Example 1, trans-4-(3-(2-(difluoromethoxy)-6-methoxypyridin-3-yl)-1-(4-isopropylpyridin-3-yl)ureido)cyclohexane-1-carboxylic acid] | 290 | 0.05 | 7.00 to 8.00 |
